Kd data for nine compounds are collected here from ChEMBL document CHEMBL3991601, “The target landscape of clinical kinase drugs” (Science, 2017).

Each structure is given as a SMILES string. Active and inactive are the calls of the source. Rule as the data show it, for most assays here: actives have a measured Kd and inactives only a lower limit.

Assay [1] addresses Ephrin type-A receptor 2 (Homo sapiens, UniProt P29317).
In assay [2] the target is Guanine nucleotide-binding protein G(i) subunit alpha-2 (Homo sapiens, UniProt P04899).
The target in assay [3] is Ephrin type-A receptor 5 (Homo sapiens, UniProt P54756).
In assay [4] the target is Mitogen-activated protein kinase 10 (Homo sapiens, UniProt P53779).
For assay [5], the target named is STE20-like serine/threonine-protein kinase (Homo sapiens, UniProt Q9H2G2).
Assay [6] concerns the target Mitogen-activated protein kinase kinase kinase 20 (Homo sapiens, UniProt Q9NYL2).
The target in assay [7] is Serine/threonine-protein kinase/endoribonuclease IRE2 (Homo sapiens, UniProt Q76MJ5).
In assay [8] the target is Non-receptor tyrosine-protein kinase TYK2 (Homo sapiens, UniProt P29597).
Assay [9] concerns the target T1, MAP kinase-activated protein kinase 5 (Homo sapiens, UniProt Q8IW41).
T1 sequence (Q8IW41 whole entry): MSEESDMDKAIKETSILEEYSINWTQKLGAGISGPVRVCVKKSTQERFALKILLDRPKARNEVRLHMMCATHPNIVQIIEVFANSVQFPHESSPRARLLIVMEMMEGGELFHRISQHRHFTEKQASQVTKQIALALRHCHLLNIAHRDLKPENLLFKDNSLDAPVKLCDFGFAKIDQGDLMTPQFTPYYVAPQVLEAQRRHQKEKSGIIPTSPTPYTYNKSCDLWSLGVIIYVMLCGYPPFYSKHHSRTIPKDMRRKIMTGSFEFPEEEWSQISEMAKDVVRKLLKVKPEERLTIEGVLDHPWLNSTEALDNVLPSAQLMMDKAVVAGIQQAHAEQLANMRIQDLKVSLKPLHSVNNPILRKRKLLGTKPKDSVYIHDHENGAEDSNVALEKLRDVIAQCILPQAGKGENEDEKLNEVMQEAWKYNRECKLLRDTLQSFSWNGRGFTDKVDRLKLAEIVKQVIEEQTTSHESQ

Assay [10] has as its target BMP-2-inducible protein kinase (Homo sapiens, UniProt Q9NSY1).
Assay [11] deals with Calcium/calmodulin-dependent protein kinase type II subunit gamma (Homo sapiens, UniProt Q13555).
Assay [12] deals with Mitogen-activated protein kinase kinase kinase 4 (Homo sapiens, UniProt Q9Y6R4).
Assay [13] concerns the target T2, Non-receptor tyrosine-protein kinase TNK1 (Homo sapiens, UniProt Q13470).
T2 sequence (Q13470 whole entry): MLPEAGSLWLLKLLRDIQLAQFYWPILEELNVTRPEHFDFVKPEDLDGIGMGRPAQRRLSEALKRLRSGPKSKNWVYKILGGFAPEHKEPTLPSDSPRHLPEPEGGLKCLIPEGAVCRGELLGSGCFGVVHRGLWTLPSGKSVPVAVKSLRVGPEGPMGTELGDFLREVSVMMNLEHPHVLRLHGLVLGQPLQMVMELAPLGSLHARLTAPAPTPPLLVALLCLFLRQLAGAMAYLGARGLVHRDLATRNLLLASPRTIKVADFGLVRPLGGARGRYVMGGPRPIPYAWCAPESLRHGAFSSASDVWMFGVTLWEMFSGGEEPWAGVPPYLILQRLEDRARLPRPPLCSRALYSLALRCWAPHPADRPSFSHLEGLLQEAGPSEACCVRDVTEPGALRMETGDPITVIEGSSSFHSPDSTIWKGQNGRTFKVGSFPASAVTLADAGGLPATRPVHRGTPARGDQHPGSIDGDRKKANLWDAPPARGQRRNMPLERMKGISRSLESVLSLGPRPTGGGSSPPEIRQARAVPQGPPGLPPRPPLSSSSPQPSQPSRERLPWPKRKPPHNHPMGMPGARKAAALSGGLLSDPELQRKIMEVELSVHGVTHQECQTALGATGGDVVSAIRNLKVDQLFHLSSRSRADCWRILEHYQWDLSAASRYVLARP

The target of assay [14] is Serine/threonine-protein kinase N2 (Homo sapiens, UniProt Q16513).
The target of assay [15] is T3, Signal recognition particle receptor subunit alpha (Homo sapiens, UniProt P08240).
T3 sequence (P08240 whole entry): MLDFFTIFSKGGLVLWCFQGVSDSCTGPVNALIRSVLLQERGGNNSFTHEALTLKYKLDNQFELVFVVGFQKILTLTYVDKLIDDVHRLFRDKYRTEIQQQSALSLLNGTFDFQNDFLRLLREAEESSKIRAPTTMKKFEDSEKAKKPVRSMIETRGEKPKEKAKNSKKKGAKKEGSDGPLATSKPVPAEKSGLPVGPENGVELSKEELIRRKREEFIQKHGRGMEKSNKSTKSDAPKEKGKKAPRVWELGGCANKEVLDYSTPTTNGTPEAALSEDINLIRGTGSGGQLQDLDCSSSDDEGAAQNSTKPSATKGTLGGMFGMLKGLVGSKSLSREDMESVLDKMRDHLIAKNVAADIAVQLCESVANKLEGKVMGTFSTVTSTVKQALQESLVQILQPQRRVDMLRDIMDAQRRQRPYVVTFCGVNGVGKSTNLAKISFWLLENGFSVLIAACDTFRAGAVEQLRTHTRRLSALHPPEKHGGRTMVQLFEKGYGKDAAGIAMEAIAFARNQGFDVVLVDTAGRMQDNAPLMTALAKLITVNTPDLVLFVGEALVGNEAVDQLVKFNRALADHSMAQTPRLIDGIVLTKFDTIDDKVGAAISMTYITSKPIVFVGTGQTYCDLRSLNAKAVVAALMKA
Also: in the data inactive means no Kd found up to 30 µM.

Ephrin type-A receptor 5, sequence (P54756 whole entry): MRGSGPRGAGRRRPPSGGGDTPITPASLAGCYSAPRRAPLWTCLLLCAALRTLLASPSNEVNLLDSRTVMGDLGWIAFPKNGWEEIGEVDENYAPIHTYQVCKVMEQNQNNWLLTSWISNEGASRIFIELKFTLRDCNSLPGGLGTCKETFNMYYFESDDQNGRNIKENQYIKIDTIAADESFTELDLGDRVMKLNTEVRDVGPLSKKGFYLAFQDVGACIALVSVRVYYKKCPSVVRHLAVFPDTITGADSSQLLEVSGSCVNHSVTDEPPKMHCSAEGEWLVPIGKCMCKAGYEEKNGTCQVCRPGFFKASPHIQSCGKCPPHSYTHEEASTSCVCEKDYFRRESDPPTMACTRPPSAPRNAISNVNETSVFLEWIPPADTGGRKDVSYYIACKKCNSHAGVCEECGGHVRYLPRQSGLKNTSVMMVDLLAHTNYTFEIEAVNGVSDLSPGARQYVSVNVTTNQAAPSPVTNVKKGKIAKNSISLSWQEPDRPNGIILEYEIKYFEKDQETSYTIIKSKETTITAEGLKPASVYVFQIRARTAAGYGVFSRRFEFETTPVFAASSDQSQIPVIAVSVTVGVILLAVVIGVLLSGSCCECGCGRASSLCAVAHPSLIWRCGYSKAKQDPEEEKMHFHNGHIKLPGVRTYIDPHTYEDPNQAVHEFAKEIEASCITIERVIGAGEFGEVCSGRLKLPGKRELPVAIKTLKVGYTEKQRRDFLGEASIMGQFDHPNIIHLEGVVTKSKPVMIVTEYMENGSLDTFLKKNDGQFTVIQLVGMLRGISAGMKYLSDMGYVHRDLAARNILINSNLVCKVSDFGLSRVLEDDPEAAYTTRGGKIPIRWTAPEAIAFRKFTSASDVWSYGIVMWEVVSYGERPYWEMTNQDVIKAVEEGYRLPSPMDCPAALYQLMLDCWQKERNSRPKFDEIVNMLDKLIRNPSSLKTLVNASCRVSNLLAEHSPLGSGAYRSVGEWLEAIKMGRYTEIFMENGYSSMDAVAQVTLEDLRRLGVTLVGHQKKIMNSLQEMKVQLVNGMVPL
Serine/threonine-protein kinase/endoribonuclease IRE2, sequence (Q76MJ5 whole entry): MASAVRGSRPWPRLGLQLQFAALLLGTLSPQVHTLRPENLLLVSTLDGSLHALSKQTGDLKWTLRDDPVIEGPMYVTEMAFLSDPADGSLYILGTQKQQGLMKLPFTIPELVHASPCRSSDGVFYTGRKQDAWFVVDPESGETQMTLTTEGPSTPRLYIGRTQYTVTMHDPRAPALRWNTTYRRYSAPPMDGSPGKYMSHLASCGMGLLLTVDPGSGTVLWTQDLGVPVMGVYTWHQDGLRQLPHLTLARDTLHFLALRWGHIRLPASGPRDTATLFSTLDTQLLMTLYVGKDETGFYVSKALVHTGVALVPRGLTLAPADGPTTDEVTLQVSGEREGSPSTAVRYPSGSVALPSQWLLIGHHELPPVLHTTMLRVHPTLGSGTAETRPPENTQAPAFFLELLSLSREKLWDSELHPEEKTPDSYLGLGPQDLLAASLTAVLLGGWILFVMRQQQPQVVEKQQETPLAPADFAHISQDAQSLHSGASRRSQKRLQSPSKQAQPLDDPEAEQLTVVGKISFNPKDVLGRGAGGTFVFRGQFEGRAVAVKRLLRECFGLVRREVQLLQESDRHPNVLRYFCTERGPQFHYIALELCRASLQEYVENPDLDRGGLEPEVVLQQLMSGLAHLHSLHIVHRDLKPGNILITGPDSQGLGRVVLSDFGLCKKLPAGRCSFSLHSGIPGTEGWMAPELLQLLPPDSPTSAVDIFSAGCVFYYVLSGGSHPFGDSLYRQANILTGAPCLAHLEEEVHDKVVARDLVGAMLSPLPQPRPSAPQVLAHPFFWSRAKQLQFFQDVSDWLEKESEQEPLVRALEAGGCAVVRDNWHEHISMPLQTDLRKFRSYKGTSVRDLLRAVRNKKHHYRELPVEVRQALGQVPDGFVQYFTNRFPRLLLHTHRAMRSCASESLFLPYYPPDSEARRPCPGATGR
Mitogen-activated protein kinase 10, sequence (P53779 whole entry): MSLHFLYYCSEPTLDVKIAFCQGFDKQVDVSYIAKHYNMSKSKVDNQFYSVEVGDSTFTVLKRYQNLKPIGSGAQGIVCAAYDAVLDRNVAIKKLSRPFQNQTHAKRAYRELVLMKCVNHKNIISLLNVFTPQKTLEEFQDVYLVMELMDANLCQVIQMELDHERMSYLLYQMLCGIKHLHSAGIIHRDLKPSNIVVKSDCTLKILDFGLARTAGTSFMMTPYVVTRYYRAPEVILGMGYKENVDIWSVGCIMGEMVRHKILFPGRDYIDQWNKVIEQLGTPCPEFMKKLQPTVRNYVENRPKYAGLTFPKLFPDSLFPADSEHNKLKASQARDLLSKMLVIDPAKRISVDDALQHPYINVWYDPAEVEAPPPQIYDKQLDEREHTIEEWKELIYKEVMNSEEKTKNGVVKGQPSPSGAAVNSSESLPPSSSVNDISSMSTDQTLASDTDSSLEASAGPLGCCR
Non-receptor tyrosine-protein kinase TYK2, sequence (P29597 whole entry): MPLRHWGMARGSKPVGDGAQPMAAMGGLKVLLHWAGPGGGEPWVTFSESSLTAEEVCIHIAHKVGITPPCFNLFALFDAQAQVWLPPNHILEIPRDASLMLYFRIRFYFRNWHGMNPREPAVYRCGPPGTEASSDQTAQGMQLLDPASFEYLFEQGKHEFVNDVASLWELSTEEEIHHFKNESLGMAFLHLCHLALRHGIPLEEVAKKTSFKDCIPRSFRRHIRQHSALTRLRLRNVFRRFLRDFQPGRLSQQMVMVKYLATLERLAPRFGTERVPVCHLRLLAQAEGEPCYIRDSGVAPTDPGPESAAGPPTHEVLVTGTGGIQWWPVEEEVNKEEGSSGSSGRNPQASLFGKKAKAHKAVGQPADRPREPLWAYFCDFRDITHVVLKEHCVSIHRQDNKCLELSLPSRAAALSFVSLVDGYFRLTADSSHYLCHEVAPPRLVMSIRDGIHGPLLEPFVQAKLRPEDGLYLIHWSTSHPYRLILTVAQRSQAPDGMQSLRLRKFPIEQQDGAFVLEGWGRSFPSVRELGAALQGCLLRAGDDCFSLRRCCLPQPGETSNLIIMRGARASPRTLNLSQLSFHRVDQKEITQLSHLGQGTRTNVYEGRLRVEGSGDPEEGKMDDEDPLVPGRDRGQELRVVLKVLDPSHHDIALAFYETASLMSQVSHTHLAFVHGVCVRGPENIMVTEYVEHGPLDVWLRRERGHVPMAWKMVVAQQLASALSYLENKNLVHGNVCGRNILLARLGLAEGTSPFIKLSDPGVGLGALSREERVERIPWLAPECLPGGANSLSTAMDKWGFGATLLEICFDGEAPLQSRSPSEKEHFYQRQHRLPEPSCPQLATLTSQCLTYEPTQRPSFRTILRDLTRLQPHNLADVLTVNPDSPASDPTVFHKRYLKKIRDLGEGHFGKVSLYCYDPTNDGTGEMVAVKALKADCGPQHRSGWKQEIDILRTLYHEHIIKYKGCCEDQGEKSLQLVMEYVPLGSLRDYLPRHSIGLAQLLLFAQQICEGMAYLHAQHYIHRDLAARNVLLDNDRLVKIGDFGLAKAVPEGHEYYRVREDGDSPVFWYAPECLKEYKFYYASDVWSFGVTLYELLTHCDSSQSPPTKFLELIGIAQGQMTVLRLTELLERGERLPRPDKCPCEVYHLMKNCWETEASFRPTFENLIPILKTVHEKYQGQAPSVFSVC
Serine/threonine-protein kinase N2, sequence (Q16513 whole entry): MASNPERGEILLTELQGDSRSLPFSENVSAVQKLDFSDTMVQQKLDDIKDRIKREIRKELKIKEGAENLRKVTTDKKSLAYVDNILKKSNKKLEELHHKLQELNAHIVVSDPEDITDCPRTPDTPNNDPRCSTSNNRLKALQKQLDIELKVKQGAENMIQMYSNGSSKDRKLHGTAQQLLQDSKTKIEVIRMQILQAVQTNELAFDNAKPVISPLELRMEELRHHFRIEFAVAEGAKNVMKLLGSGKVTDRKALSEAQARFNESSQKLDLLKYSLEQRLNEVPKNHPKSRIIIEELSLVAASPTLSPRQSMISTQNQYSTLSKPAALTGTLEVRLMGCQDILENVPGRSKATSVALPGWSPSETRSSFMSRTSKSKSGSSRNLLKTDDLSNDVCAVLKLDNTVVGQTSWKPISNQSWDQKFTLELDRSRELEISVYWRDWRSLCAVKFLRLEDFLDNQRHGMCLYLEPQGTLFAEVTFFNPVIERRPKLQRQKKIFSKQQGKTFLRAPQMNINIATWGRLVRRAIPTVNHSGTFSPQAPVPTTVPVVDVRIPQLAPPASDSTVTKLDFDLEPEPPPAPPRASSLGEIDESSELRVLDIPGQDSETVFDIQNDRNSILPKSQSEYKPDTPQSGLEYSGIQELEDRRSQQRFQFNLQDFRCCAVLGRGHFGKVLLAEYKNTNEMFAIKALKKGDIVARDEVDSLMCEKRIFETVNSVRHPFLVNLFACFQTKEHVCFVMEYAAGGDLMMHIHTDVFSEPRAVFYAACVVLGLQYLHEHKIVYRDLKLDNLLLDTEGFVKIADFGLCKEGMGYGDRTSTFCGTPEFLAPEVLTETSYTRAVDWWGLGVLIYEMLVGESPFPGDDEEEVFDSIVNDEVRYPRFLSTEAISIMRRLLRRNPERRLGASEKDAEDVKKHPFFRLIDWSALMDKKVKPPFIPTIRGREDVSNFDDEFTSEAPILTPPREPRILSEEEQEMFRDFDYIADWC
Guanine nucleotide-binding protein G(i) subunit alpha-2, sequence (P04899 whole entry): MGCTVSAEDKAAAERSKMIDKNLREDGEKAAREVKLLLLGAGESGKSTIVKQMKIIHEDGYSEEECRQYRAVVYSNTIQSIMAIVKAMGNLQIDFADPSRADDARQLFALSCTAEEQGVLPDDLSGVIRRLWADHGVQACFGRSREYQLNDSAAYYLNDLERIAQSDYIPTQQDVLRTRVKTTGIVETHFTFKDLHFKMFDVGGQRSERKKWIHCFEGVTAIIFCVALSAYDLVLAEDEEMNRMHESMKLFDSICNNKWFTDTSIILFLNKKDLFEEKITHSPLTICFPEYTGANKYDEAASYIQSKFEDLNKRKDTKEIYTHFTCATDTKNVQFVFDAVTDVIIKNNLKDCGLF

As for `CN1CCN(c2nc(C3=C(c4c[nH]c5ccccc45)C(=O)NC3=O)c3ccccc3n2)CC1` [SOTRASTAURIN], the Kd in assay [1], in assay [2], in [3], in assay [4], in assay [5] and in assay [6] was > 30 µM (inactive) throughout. Also, the Kd in assay [7], in assay [8], in [9], in [10], in assay [11] and in assay [12] was > 30 µM (inactive) in each case. In addition, in assay [13], the Kd was > 30 µM (inactive).
Turning to `COc1cccc(Nc2ncnn3ccc(CN4CC[C@@H](N)[C@H](O)C4)c23)c1` [BMS-690514], the Kd in [1] is > 30 µM (inactive); in assay [2], > 30 µM (inactive); in [3] it was > 30 µM (inactive); in [4], > 30 µM (inactive); in assay [6], 0.282 µM (active); in [7] it was > 30 µM (inactive). The Kd in [8] was > 30 µM (inactive); in [9], > 30 µM (inactive); in assay [10], 1.71 µM (active); in [11], 0.738 µM (active); in assay [12] it was > 30 µM (inactive); in assay [14], > 30 µM (inactive). In addition, the Kd in assay [13] was > 30 µM (inactive).
In the case of `CC(C)(O)CC(=O)NCCn1ccc2ncnc(Nc3ccc(Oc4cccc(C(F)(F)F)c4)c(Cl)c3)c21` [TAK-285], the Kd in [15], in assay [1], in assay [2], in assay [3], in assay [4] and in assay [6] was > 30 µM (inactive) each time. The Kd in [7], in assay [8], in assay [9], in assay [10], in assay [11] and in assay [12] was > 30 µM (inactive) in each case. The Kd in assay [14] and in assay [13] was > 30 µM (inactive) in each case.
Consider `C=CCn1c(=O)c2cnc(Nc3ccc(N4CCN(C)CC4)cc3)nc2n1-c1cccc(C(C)(C)O)n1` [ADAVOSERTIB], for which the Kd in [15], in assay [1], in assay [2], in assay [3], in assay [4] and in [5] was > 30 µM (inactive) each time. The Kd in assay [6], in assay [7], in [8], in assay [9], in assay [10] and in assay [11] was > 30 µM (inactive) in each case. In addition, the Kd is 0.052 µM (active) in [12] and > 30 µM (inactive) in assay [13].
As to `CCOc1ccn(-c2ccc(F)cc2)c(=O)c1C(=O)Nc1ccc(Oc2ccnc(N)c2Cl)c(F)c1` [BMS-777607], the Kd in assay [15], in assay [1], in assay [2], in [3], in [4] and in [5] was > 30 µM (inactive) each time. The Kd in [6], in [7], in assay [9], in assay [10], in assay [12] and in assay [14] was > 30 µM (inactive) in each case. In [13], the Kd is > 30 µM (inactive).
Take `O=S(=O)(c1cccc2cnccc12)N1CCCNCC1` [FASUDIL]: the Kd in assay [15], in assay [2], in assay [3], in assay [4], in assay [6] and in assay [7] was > 30 µM (inactive) throughout. In addition, the Kd in [9], in assay [11], in assay [12] and in assay [13] was > 30 µM (inactive) each time.
On to `C[C@]1(O)C[C@@H](c2nc(-c3ccc4ccc(-c5ccccc5)nc4c3)c3c(N)nccn32)C1` [LINSITINIB], for which the Kd in assay [15], in [2], in [3], in assay [4], in [7] and in [10] was > 30 µM (inactive) each time. Moreover, the Kd in [12] and in assay [13] was > 30 µM (inactive) each time.
On to `CNC(=O)c1cc(COc2nnc(Nc3ccc(Cl)cc3)c3ccoc23)ccn1` [TELATINIB], for which the Kd in assay [15] was > 30 µM (inactive); in assay [1], > 30 µM (inactive); in assay [3], > 30 µM (inactive); in assay [4] it was > 30 µM (inactive); in [5], > 30 µM (inactive); in assay [6], 0.477 µM. The Kd in assay [7], in assay [8], in [9], in assay [10], in assay [11] and in assay [12] was > 30 µM (inactive) throughout. In addition, the Kd in assay [14] and in [13] was > 30 µM (inactive) throughout.
As for `O=C(NOC[C@H](O)CO)c1ccc(F)c(F)c1Nc1ccc(I)cc1F` [MIRDAMETINIB], the Kd in assay [15], in [1], in assay [3], in assay [4], in assay [5] and in assay [6] was > 30 µM (inactive) in each case. The Kd in assay [7], in [8], in assay [9], in assay [10], in assay [11] and in assay [12] was > 30 µM (inactive) each time. Also, the Kd in assay [14] and in assay [13] was > 30 µM (inactive) each time.

For orientation: Kd means the free concentration of one partner at which half of the binding sites on the other are occupied at equilibrium, for simple one-to-one binding.
